From US12486253B2, “Therapeutics for the degradation of mutant BRAF” (C4 THERAPEUTICS, INC., priority 2021, dated 2025) come the findings set out here.

Assay [1] concerns A375 cells expressing the oncogenic NRAS^Q61K mutation. Nature of the assay: Cellular growth over time of A375 cells expressing NRAS^Q61K. Format: cell-based.
Assay [2] addresses T1, BRAF class II mutant G469A (Homo sapiens, UniProt P15056, G469A).
T1 construct: host or cells: HEK-293T, lentiviral expression
Nature of the assay: Western blot of engineered HEK-293T cells expressing class II mutant G469A. Format: cell-based. The settings on record: lentivirus expression.

T1 sequence (P15056 whole entry G469A): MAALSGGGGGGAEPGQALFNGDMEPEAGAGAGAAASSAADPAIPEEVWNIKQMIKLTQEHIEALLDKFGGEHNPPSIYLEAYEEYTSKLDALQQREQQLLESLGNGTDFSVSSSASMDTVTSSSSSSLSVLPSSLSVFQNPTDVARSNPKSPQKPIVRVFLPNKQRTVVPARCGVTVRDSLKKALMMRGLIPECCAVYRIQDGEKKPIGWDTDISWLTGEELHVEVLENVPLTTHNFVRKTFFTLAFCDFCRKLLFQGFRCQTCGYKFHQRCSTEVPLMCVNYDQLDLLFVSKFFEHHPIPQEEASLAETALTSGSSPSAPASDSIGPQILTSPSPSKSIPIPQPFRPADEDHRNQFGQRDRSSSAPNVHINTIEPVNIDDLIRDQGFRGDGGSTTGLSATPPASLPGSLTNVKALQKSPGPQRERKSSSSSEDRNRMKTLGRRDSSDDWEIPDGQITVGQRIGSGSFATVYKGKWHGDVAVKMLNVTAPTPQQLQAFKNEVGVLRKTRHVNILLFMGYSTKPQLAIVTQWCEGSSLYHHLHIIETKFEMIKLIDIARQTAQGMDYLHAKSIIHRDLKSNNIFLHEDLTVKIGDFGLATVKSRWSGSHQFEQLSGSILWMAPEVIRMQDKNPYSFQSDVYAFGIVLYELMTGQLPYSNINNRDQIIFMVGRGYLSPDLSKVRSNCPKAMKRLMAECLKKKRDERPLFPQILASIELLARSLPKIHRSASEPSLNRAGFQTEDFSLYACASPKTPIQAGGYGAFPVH

With `CCN(C)S(=O)(=O)Nc1ccc(F)c(Oc2ccc3ncn([C@H]4COC5(CCN(C(=O)CC6(O)CCN(c7cc8c(cc7F)c(N7CCC(=O)NC7=O)nn8C)CC6)CC5)C4)c(=O)c3c2)c1C#N` [Compound 157, (3R)-3-[6-[2-cyano-3-[[ethyl(methyl)sulfamoyl]amino]-6-fluorophenoxy]-4-oxoquinazolin-3-yl]-8-[2-[1-[3-(2,4-dioxo-1,3-diazinan-1-yl)-5-fluoro-1-methylindazol-6-yl]-4-hydroxypiperidin-4-yl]acetyl]-1-oxa-8-azaspiro[4.5]decane], the confluency in assay [1] is no more than 50%. The “degradation of class II mutant G469A” value in assay [2] is reported as “capable of degrading”.
